Results: patent publication US11504425B2, “Amphiphilic oligodeoxynucleotide conjugates as adjuvant enhancers” (WAYNE STATE UNIVERSITY, priority 2019, dated 2022)
“Also recorded” adds a separate entry of the source. Oligonucleotides are written 5' to 3', each unit as a sugar letter and its base; * is a phosphorothioate linkage, no mark a phosphodiester; rarer units and linkages stand in square brackets, end groups in braces. Plain capitals give the bases only. {Lipid} = lipid portion of the amphiphilic conjugate (lipid variable, as described in specification); d = 2'-deoxy (DNA)

Key:
[1] = system: TLR7-mediated NF-κB activation in Raw-Blue reporter cells; assay: Raw-Blue NF-κB/SEAP reporter stimulation with TLR7 ligands; assay type: cell-based, murine; details: for IMQ-induced NF-κB activation (SEAP) in the presence of the ODN: 2 μM IMQ + 1 μM ODN, FBS-supplemented medium
Method: (§1) HEK-Blue™-mTLR7, mTLR8, hTLR7, hTLR8, and RAW-Blue™ cells were purchased from InvivoGen and were used to evaluate bioactivities of lipo ODNs and TLR 7/8 ligands in vitro. All these cell lines were cultured with DMEM supplemented with 10% FBS, 1% P/S and 100 μg/mL Normocin at 37° C. with 5% CO2. […] After incubating for 24 h, SEAP levels were quantified by developing supernatants with QuantiBlue™ substrate for 1 h and reading absorption at 620 nm, following manufacturer's instructions.
Following subcutaneous injection, lipid-modified oligonucleotides efficiently accumulated in the draining lymph nodes by binding and trafficking with endogenous albumin protein (Liu et al., Nature 507, 519-522, 2014; Yu et al., Pharmaceutical Res. 35: 56, 2018). Inspired by that prior work, the current study was aimed to take advantage of lipid functionalization in other oligonucleotide-based TLR inhibitors to further expand the pool of lipo suppressive ODNs. The therapeutic efficacy of lipid-modified IRS 954 in suppressing TLR7-mediated immune activation and alleviating the severity of SLE was investigated. Imiquimod (IMQ; FIG. 1A) was first used to stimulate TLR7-mediated immune activation in Raw-Blue reporter cells. For the initial experiments, Raw Blue cells-a murine RAW 264.7 macrophage cell line which expresses secreted embryonic alkaline phosphatase (SEAP) under the control of an NF-κB and AP-1, were used. Raw Blue cells express many toll-like receptors, including TLR-7, TLR-8, and TLR-9. The immunosuppressive capability of unmodified or lipo IRS 954 was determined by quantifying the level of TLR7-induced NF-κB activation.

[2] = biological target: T1, human TLR7 (hTLR7) (Homo sapiens, UniProt Q9NYK1); assay: HEK hTLR7 reporter cells NF-κB/SEAP; assay type: cell-based; details: 2 μM IMQ + 1 μM ODN, 24 h
T1 construct: host or cells: HEK-Blue-hTLR7 (HEK293)
T1 sequence (Q9NYK1 27-1049): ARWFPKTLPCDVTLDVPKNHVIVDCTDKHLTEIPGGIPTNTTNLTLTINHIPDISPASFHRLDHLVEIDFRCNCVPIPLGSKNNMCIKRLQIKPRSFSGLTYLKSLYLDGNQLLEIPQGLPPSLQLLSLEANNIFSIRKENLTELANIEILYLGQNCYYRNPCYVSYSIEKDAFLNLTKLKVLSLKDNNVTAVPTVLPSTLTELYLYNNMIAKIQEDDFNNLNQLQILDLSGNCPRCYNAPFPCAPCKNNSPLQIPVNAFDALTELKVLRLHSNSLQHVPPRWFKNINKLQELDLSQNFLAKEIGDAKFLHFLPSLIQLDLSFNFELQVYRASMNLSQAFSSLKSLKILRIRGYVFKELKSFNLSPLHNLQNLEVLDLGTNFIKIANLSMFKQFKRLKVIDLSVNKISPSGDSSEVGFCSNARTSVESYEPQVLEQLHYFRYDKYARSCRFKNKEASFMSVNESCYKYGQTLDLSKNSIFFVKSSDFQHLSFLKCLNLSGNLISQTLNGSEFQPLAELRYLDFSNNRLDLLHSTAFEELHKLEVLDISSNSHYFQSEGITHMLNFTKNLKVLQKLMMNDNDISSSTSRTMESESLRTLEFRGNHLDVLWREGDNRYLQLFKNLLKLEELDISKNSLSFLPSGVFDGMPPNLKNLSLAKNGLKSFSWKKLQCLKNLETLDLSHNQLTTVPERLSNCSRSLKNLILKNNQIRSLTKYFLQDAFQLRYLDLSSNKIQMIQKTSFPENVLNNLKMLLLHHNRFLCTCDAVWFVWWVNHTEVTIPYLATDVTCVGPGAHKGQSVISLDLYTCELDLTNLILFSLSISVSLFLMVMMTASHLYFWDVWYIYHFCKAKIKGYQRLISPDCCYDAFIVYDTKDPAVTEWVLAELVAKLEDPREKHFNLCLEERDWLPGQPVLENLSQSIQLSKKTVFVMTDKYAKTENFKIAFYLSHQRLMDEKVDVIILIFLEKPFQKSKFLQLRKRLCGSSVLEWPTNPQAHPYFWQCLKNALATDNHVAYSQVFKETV
Method: as §1
(§2) HEK293 cells transfected with human TLR7 or 8 were used. The cells were stimulated with IMQ in the presence of several inhibitory oligonucleotides reported in the literature. […] In contrast, all the unmodified ODNs maintained their inhibitory function, reducing the NF-κB secretion to basal levels (FIG. 8A). We then plotted the IMQ dose response curve in human TLR-7 transfected HEK293 cells.

[3] = biological target: T2, human TLR8 (hTLR8) (Homo sapiens, UniProt Q9NR97); assay: HEK hTLR8 reporter cells NF-κB/SEAP; assay type: cell-based; details: 1 μg/ml or indicated concentrations TLR8-506 + 1 μM ODN, 24 h
T2 construct: host or cells: HEK-Blue-hTLR8 (HEK293)
T2 sequence (Q9NR97 27-1041): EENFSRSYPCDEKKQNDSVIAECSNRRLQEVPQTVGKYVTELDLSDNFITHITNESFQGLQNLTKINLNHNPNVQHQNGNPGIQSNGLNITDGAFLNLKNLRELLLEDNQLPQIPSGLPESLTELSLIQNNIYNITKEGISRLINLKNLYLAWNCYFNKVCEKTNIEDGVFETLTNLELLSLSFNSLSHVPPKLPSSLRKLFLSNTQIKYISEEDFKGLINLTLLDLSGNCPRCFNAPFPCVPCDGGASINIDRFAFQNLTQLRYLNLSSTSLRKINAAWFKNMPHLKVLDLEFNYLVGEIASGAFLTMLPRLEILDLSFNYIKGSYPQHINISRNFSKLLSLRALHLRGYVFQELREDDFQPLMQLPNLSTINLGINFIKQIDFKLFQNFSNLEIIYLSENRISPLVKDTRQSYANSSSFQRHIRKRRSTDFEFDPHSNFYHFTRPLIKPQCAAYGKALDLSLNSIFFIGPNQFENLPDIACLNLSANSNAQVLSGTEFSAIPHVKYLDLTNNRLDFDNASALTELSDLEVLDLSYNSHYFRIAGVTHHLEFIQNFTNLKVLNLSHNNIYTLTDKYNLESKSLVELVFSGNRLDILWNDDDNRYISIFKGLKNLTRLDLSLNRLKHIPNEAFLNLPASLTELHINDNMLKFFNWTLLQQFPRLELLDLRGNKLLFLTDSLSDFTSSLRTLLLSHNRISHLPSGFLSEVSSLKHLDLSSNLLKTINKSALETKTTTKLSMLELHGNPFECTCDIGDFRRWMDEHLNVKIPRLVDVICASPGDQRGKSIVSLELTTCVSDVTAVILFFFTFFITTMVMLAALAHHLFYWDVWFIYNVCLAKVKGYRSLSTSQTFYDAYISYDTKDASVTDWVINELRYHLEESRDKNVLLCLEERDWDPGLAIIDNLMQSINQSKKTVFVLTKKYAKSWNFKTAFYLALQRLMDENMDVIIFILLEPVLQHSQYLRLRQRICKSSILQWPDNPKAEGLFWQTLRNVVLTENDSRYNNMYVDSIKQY
Method: as §1, §2

[4] = biological target: T3, mouse TLR7 (mTLR7) (Mus musculus, UniProt P58681); assay: HEK mTLR7 reporter cells NF-κB/SEAP; assay type: cell-based; details: soluble ligand alone, 24 h
T3 construct: host or cells: HEK-Blue-mTLR7 (HEK293)
T3 sequence (P58681 27-1050): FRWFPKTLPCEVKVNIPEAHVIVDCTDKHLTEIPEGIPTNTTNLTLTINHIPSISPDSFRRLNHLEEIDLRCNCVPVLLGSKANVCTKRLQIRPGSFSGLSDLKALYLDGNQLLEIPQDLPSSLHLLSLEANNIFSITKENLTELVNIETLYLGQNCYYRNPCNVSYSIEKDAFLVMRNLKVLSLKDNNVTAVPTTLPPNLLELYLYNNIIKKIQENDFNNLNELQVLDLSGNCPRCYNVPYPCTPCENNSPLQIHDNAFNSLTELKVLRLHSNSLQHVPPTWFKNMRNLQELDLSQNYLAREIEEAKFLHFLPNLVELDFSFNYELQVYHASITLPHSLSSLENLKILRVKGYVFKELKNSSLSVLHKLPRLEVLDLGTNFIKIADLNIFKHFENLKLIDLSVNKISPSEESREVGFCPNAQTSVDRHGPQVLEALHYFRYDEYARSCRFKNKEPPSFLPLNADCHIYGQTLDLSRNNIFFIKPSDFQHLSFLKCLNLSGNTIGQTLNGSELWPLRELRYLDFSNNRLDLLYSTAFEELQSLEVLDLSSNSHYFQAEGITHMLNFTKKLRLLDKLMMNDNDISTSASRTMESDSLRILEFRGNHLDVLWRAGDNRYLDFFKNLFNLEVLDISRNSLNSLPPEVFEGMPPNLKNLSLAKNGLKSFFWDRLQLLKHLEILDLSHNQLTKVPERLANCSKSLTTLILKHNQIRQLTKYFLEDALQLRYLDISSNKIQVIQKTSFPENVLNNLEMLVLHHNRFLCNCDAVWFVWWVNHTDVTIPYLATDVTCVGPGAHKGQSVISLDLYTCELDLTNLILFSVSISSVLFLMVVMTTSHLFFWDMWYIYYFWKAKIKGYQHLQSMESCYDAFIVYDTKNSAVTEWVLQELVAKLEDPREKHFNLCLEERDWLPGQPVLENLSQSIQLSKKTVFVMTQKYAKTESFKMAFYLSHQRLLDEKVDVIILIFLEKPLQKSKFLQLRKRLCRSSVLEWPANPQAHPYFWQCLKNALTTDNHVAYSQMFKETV
Method: as §1
Raw Blue cells which respond to both murine TLR-7 and TLR-8 are also included to assess the overall modulatory effect. half-maximal effective concentration (EC50) and potency of several classic TLR7/8 ligands were evaluated in murine TLR7 and TLR8 reporter cells.

Molecule | IMQ-induced NF-κB activation (SEAP) in the presence of the ODN ([1]; 24 h) | activity of the ODN alone in Raw Blue cells ([1]; without IMQ) | IMQ-mediated NF-κB stimulation in hTLR7 cells in the presence of the ODN [2] | TLR8-506 stimulation of hTLR8 cells in the presence of the ODN [3] | NF-κB activation of Raw Blue cells by the ligand alone ([1]; ligand alone, 24 h) | mTLR7 activation by the ligand alone [4]
5′-L-TGCTCCTGGAGGGGTTGT-3′ (DNA NTGCTCCTGGAGGGGTTGT; 5' lipid modification; Lipid-modified synthetic oligonucleotide; (1)..(1) n=placeholder indicative of lipid portion of conjugate, as described in specification; lipid is variable, depending on embodiment(s)) [lipo IRS 954] | enhanced TLR7-mediated activation; also recorded: more than twofold increase in TLR-7-mediated activation | no activity | markedly enhanced IMQ-mediated NF-κB stimulation | partially inhibited the TLR-8 signaling | – | –
5′-TGCTCCTGGAGGGGTTGT-3′ (DNA dT*dG*dC*dT*dC*dC*dT*dG*dG*dA*dG*dG*dG*dG*dT*dT*dG*dT) [IRS 954] | no detectable NF-κB was observed | – | – | – | – | –
CC(C)Cn1cnc2c(N)nc3ccccc3c21 [IMQ, imiquimod] | – | – | – | – | resulted in secretion of NF-κB | activated mTLR-7 at different concentrations
lipo ODN 2087: lipid modified ODN 2087 (5′-TCCTGAGCTTGAAGT-3′) (DNA {Lipid}-dT*dC*dC*dT*dG*dA*dG*dC*dT*dT*dG*dA*dA*dG*dT) | – | – | markedly enhanced IMQ-mediated NF-κB stimulation | partially inhibited the TLR-8 signaling | – | –
